Consider 5 molecules from PMC3762062, “Cloning, overexpression and biocatalytic exploration of a novel Baeyer-Villiger monooxygenase from Aspergillus fumigatus Af293” (AMB Express, 2013).

The kcat is the number of substrate molecules converted per active site and unit of time at saturation. What is called kcat/Km is the second-order rate constant that governs catalysis at low substrate concentration.

Read-outs that look alike come from different tables or passages of the source.

The target of data set [1] is T1, BVMOAf1 (PTDH-BVMOAf1) (Aspergillus fumigatus, UniProt Q4WAZ0).
T1 construct: gene psoF; Truncated N-terminal BVMO domain (1614 bp, 367 C-terminal residues of the 905 deleted); pCRE2 vector, E. coli TOP10; fusion kept; natural Gln in place of His in the BVMO motif (H173Q)
T1 sequence (Q4WAZ0 1-538): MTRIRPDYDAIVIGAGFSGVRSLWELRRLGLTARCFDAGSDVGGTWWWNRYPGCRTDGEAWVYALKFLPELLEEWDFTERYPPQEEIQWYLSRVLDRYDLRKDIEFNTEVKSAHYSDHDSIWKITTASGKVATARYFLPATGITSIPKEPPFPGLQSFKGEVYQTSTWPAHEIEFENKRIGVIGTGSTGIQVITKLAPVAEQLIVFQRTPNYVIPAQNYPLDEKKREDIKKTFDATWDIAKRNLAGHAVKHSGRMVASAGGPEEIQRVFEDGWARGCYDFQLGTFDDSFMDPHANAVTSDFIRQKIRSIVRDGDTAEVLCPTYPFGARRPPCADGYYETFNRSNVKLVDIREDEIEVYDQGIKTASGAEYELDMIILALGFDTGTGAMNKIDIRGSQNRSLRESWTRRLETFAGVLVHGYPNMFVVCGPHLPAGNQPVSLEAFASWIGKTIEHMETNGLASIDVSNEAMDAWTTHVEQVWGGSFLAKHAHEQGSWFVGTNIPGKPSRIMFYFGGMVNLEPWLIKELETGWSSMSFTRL
Kind of data set: NADPH consumption at […] nm. The note with it: air-saturated 50 mM Tris/HCl pH 8.0, 25°C. It is filed as biochemical.

Data set [2] deals with T1, BVMOAf1 (PTDH-BVMOAf1). Kind of data set: UV-Vis absorption of purified holo flavoprotein, FAD release by SDS. The data set is classed as binding. The note with it: FAD 100 μM in lysis buffer; Tris/HCl pH 8.0.
The test system of data set [3] is CCSCc1ccccc1. Nature of the data set: purified protein. The data set is classed as biochemical, Aspergillus fumigatus. The note with it: 100 μM NADPH, air-saturated 50 mM Tris/HCl pH 8.0, 25°C.
The mark [4] stands for this setting: 100 μM NADPH, read-out: K M (μ M ).

Regarding `NC(=O)C1=CN([C@@H]2O[C@H](COP(=O)(O)OP(=O)(O)OC[C@H]3O[C@@H](n4cnc5c(N)ncnc54)[C@H](O)[C@@H]3O)[C@@H](O)[C@H]2O)C=CC1`, the Km in data set [1] (setting [4]) came out at 118.8 ± 0.1 µM.
Take `Cc1cc2nc3c(=O)[nH]c(=O)nc-3n(C[C@H](O)[C@H](O)[C@H](O)COP(=O)(O)OP(=O)(O)OC[C@H]3O[C@@H](n4cnc5c(N)ncnc54)[C@H](O)[C@@H]3O)c2cc1C` [FAD]: the “UV-Vis absorption of purified holo flavoprotein, FAD release by SDS” value in data set [2] is “yellow fractions containing FAD-bound protein”.
In the case of `NC(=O)C1=CN([C@@H]2O[C@H](COP(=O)(O)OP(=O)(O)OC[C@H]3O[C@@H](n4cnc5c(N)ncnc54)[C@H](OP(=O)(O)O)[C@@H]3O)[C@@H](O)[C@H]2O)C=CC1` [NADPH], in data set [1] (rac-bicyclo[3.2.0]hept-2-en-6-one 2.0 mM (typical mixture)), the Km is less than 5 µM.
As for `NC(=O)C1=CN([C@@H]2O[C@H](COP(=O)(O)OP(=O)(O)OC[C@H]3O[C@@H](n4cnc5c(N)ncnc54)[C@H](OP(=O)(O)O)[C@@H]3O)[C@@H](O)[C@H]2O)C=CC1` [[drawing 5]], the Km in data set [1] (setting [4]) is 179.8 ± 0.1 µM.
In the case of “BVMOAf1 (PTDH-BVMOAf1) (Aspergillus fumigatus Af293)”, in data set [3], the Km is 23.5 ± 0.1 µM, the kcat was 0.47 ± 0.04 s⁻¹ and the kcat/Km worked out at 20000 M⁻¹ s⁻¹.
